Assays:
SLAC/MRL/LPR mice = test: Lupus in MRL/LPR mice treated from 8 weeks old, 30 mg/kg (10% aq.) on back skin twice per day; type: in vivo
Protocol: . Progression of lupus was monitored once a week by measurement of hematuria, body weight and survival rate. The experiments were carried out in two groups of mice. One group of mice were 8 weeks old and had not shown SLE characteristics (Table 26a). The other group of mice were 16 weeks old, and had shown SLE characteristics (Table 26b).

SLAC/DB/DB obese mice = test: Blood glucose and blood lipid levels in DB/DB mice; type: in vivo; conditions: 30 mg/kg transdermally once per day
In short: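 SLAC/DB/DB mice aged 10-12 weeks, n=7, dosed transdermally at 30 mg/kg in 25% ethanol onto a shaved 4 cm^2 back area once daily at 8 am for 5 weeks. Blood glucose measured weekly; blood lipids every other week.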

SMILES: CCN(CC)CCOC(=O)c1ccccc1OC(C)=O.Cl [P-1, diethylaminoethyl acetylsalicylate.HCl salt]
- Body Weight (SLAC/MRL/LPR mice; week 8): 30.5 ± 2.6 g
- Hematuria (0-4) (SLAC/MRL/LPR mice; week 8): 0
- Survival Rate (SLAC/MRL/LPR mice; week 8): 10/10
- Body Weight (SLAC/MRL/LPR mice; week 9): 33.5 ± 2.1 g
- Hematuria (0-4) (SLAC/MRL/LPR mice; week 9): 0
- Survival Rate (SLAC/MRL/LPR mice; week 9): 10/10
- Body Weight (SLAC/MRL/LPR mice; week 10): 36.2 ± 2.7 g
- Hematuria (0-4) (SLAC/MRL/LPR mice; week 10): 0
- Survival Rate (SLAC/MRL/LPR mice; week 10): 10/10
- Body Weight (SLAC/MRL/LPR mice; week 11): 39.9 ± 2.1 g
- Hematuria (0-4) (SLAC/MRL/LPR mice; week 11): 0
- Survival Rate (SLAC/MRL/LPR mice; week 11): 10/10
- Body Weight (SLAC/MRL/LPR mice; week 12): 42.7 ± 2.3 g
- Hematuria (0-4) (SLAC/MRL/LPR mice; week 12): 0
- Survival Rate (SLAC/MRL/LPR mice; week 12): 10/10
- Body Weight (SLAC/MRL/LPR mice; week 13): 44.7 ± 2.4 g
- Hematuria (0-4) (SLAC/MRL/LPR mice; week 13): 0
- Survival Rate (SLAC/MRL/LPR mice; week 13): 10/10
- Body Weight (SLAC/MRL/LPR mice; week 14): 47.1 ± 1.8 g
- Hematuria (0-4) (SLAC/MRL/LPR mice; week 14): 0
- Survival Rate (SLAC/MRL/LPR mice; week 14): 10/10
- Body Weight (SLAC/MRL/LPR mice; week 15): 48.9 ± 2.6 g
- Hematuria (0-4) (SLAC/MRL/LPR mice; week 15): 0
- Survival Rate (SLAC/MRL/LPR mice; week 15): 10/10
- Body Weight (SLAC/MRL/LPR mice; week 16): 49.6 ± 2.1 g
- Hematuria (0-4) (SLAC/MRL/LPR mice; week 16): 0
- Survival Rate (SLAC/MRL/LPR mice; week 16): 10/10
- Body Weight (SLAC/MRL/LPR mice; week 17): 50.2 ± 2.5 g
- Hematuria (0-4) (SLAC/MRL/LPR mice; week 17): 0
- Survival Rate (SLAC/MRL/LPR mice; week 17): 10/10
- Body Weight (SLAC/MRL/LPR mice; week 18): 50.6 ± 2.4 g
- Hematuria (0-4) (SLAC/MRL/LPR mice; week 18): 0
- Survival Rate (SLAC/MRL/LPR mice; week 18): 10/10
- Body Weight (SLAC/MRL/LPR mice; week 19): 50.9 ± 2.3 g
- Hematuria (0-4) (SLAC/MRL/LPR mice; week 19): 0
- Survival Rate (SLAC/MRL/LPR mice; week 19): 10/10
- Body Weight (SLAC/MRL/LPR mice; week 20): 51.1 ± 2.0 g
- Hematuria (0-4) (SLAC/MRL/LPR mice; week 20): 0
- Survival Rate (SLAC/MRL/LPR mice; week 20): 10/10
- Body Weight (SLAC/MRL/LPR mice; week 21): 50.9 ± 2.3 g
- Hematuria (0-4) (SLAC/MRL/LPR mice; week 21): 0
- Survival Rate (SLAC/MRL/LPR mice; week 21): 10/10
- Body Weight (SLAC/MRL/LPR mice; week 22): 50.4 ± 2.2 g
- Hematuria (0-4) (SLAC/MRL/LPR mice; week 22): 0
- Survival Rate (SLAC/MRL/LPR mice; week 22): 10/10
- Body Weight (SLAC/MRL/LPR mice; week 23): 50.9 ± 2.1 g
- Hematuria (0-4) (SLAC/MRL/LPR mice; week 23): 0
- Survival Rate (SLAC/MRL/LPR mice; week 23): 10/10
- Body Weight (SLAC/MRL/LPR mice; week 24): 51.2 ± 2.5 g
- Hematuria (0-4) (SLAC/MRL/LPR mice; week 24): 0
- Survival Rate (SLAC/MRL/LPR mice; week 24): 10/10
- Body Weight (SLAC/MRL/LPR mice; week 25): 50.8 ± 2.2 g
- Hematuria (0-4) (SLAC/MRL/LPR mice; week 25): 0
- Survival Rate (SLAC/MRL/LPR mice; week 25): 10/10
- Body Weight (SLAC/MRL/LPR mice; week 26): 50.7 ± 2.6 g
- Hematuria (0-4) (SLAC/MRL/LPR mice; week 26): 0
- Survival Rate (SLAC/MRL/LPR mice; week 26): 10/10
- Body Weight (SLAC/MRL/LPR mice; week 27): 50.3 ± 2.1 g
- Hematuria (0-4) (SLAC/MRL/LPR mice; week 27): 0
- Survival Rate (SLAC/MRL/LPR mice; week 27): 10/10
- Body Weight (SLAC/MRL/LPR mice; week 28): 50.6 ± 2.0 g
- Hematuria (0-4) (SLAC/MRL/LPR mice; week 28): 0
- Survival Rate (SLAC/MRL/LPR mice; week 28): 10/10
- Body Weight (SLAC/MRL/LPR mice; week 29): 50.1 ± 2.0 g
- Hematuria (0-4) (SLAC/MRL/LPR mice; week 29): 0
- Survival Rate (SLAC/MRL/LPR mice; week 29): 10/10
- Body Weight (SLAC/MRL/LPR mice; week 30): 49.8 ± 2.1 g
- Hematuria (0-4) (SLAC/MRL/LPR mice; week 30): 0
- Survival Rate (SLAC/MRL/LPR mice; week 30): 10/10
- Body Weight (SLAC/MRL/LPR mice; week 31): 50.4 ± 1.9 g
- Hematuria (0-4) (SLAC/MRL/LPR mice; week 31): 0
- Survival Rate (SLAC/MRL/LPR mice; week 31): 10/10
- Body Weight (SLAC/MRL/LPR mice; week 32): 50.8 ± 2.0 g
- Hematuria (0-4) (SLAC/MRL/LPR mice; week 32): 0
- Survival Rate (SLAC/MRL/LPR mice; week 32): 10/10
- Body Weight (SLAC/MRL/LPR mice; week 33): 50.6 ± 2.1 g
- Hematuria (0-4) (SLAC/MRL/LPR mice; week 33): 0
- Survival Rate (SLAC/MRL/LPR mice; week 33): 10/10
- Body Weight (SLAC/MRL/LPR mice; week 34): 50.8 ± 2.3 g
- Hematuria (0-4) (SLAC/MRL/LPR mice; week 34): 0
- Survival Rate (SLAC/MRL/LPR mice; week 34): 10/10
- Body Weight (SLAC/MRL/LPR mice; week 35): 50.3 ± 2.4 g
- Hematuria (0-4) (SLAC/MRL/LPR mice; week 35): 0
- Survival Rate (SLAC/MRL/LPR mice; week 35): 10/10
- Body Weight (SLAC/MRL/LPR mice; week 36): 50.7 ± 2.3 g
- Hematuria (0-4) (SLAC/MRL/LPR mice; week 36): 0
- Survival Rate (SLAC/MRL/LPR mice; week 36): 10/10
- Body Weight (SLAC/MRL/LPR mice; week 37): 50.9 ± 2.0 g
- Hematuria (0-4) (SLAC/MRL/LPR mice; week 37): 0
- Survival Rate (SLAC/MRL/LPR mice; week 37): 10/10
- Body Weight (SLAC/MRL/LPR mice; week 38): 51.1 ± 2.6 g
- Hematuria (0-4) (SLAC/MRL/LPR mice; week 38): 0
- Survival Rate (SLAC/MRL/LPR mice; week 38): 10/10
- Body Weight (SLAC/MRL/LPR mice; week 39): 50.6 ± 2.2 g
- Hematuria (0-4) (SLAC/MRL/LPR mice; week 39): 0
- Survival Rate (SLAC/MRL/LPR mice; week 39): 10/10
- Body Weight (SLAC/MRL/LPR mice; week 40): 50.7 ± 2.0 g
- Hematuria (0-4) (SLAC/MRL/LPR mice; week 40): 0
- Survival Rate (SLAC/MRL/LPR mice; week 40): 10/10
- Body Weight (SLAC/MRL/LPR mice; week 41): 51.2 ± 2.1 g
- Hematuria (0-4) (SLAC/MRL/LPR mice; week 41): 0
- Survival Rate (SLAC/MRL/LPR mice; week 41): 10/10
- Body Weight (SLAC/MRL/LPR mice; week 42): 51.1 ± 2.6 g
- Hematuria (0-4) (SLAC/MRL/LPR mice; week 42): 0
- Survival Rate (SLAC/MRL/LPR mice; week 42): 10/10
- Body Weight (SLAC/MRL/LPR mice; week 43): 50.7 ± 2.2 g
- Hematuria (0-4) (SLAC/MRL/LPR mice; week 43): 0
- Survival Rate (SLAC/MRL/LPR mice; week 43): 10/10
- Body Weight (SLAC/MRL/LPR mice; week 44): 50.3 ± 2.6 g
- Hematuria (0-4) (SLAC/MRL/LPR mice; week 44): 0
- Survival Rate (SLAC/MRL/LPR mice; week 44): 10/10
- Body Weight (SLAC/MRL/LPR mice; week 45): 50.7 ± 2.0 g
- Hematuria (0-4) (SLAC/MRL/LPR mice; week 45): 0
- Survival Rate (SLAC/MRL/LPR mice; week 45): 10/10
- Body Weight (SLAC/MRL/LPR mice; week 46): 50.6 ± 2.3 g
- Hematuria (0-4) (SLAC/MRL/LPR mice; week 46): 0
- Survival Rate (SLAC/MRL/LPR mice; week 46): 10/10
- Body Weight (SLAC/MRL/LPR mice; week 47): 50.1 ± 2.0 g
- Hematuria (0-4) (SLAC/MRL/LPR mice; week 47): 0
- Survival Rate (SLAC/MRL/LPR mice; week 47): 10/10
- Body Weight (SLAC/MRL/LPR mice; week 48): 50.3 ± 2.5 g
- Hematuria (0-4) (SLAC/MRL/LPR mice; week 48): 0
- Survival Rate (SLAC/MRL/LPR mice; week 48): 10/10
- Body Weight (SLAC/MRL/LPR mice; week 49): 50.7 ± 2.4 g
- Hematuria (0-4) (SLAC/MRL/LPR mice; week 49): 0
- Survival Rate (SLAC/MRL/LPR mice; week 49): 10/10
- Body Weight (SLAC/MRL/LPR mice; week 50): 51.2 ± 2.1 g
- Hematuria (0-4) (SLAC/MRL/LPR mice; week 50): 0
- Survival Rate (SLAC/MRL/LPR mice; week 50): 10/10
- Cholesterol (total), Day 1 (SLAC/DB/DB obese mice): 7.1 ± 0.4 mmol/L
- Cholesterol (total), Week 5 (SLAC/DB/DB obese mice): 4.1 ± 0.4 mmol/L
- Triglycerides, Day 1 (SLAC/DB/DB obese mice): 4.1 ± 0.5 mmol/L
- Triglycerides, Week 5 (SLAC/DB/DB obese mice): 1.5 ± 0.3 mmol/L
- blood glucose, Day 1 (SLAC/DB/DB obese mice): 14.1 ± 2.6 mmol/L
- blood glucose, Week 5 (SLAC/DB/DB obese mice): 6.8 ± 2.8 mmol/L
